Source: patent US8354434B2, “Cyclourea compounds as calcium channel blockers” (Purdue Pharma L.P., priority 2006, dated 2013)

Columns and labels:
[1] = target: T1, L-type calcium channel (LTCC) (Rattus norvegicus, UniProt P22002); assay: FLIPR calcium mobilization assay for L-type calcium channel; type: cell-based; settings: calcium mobilization in vitro assay, differentiated A7r5 cells
T1 construct: differentiated A7r5 cells were trypsinized, then seeded on tissue culture treated 96-well clear-bottom black plates; endogenous in cells; host or cells: A7r5 cells (ATCC), differentiated 8 days with dibutyryl cAMP
Experimental: A7r5 (ATCC) cells were maintained and routinely cultured in A7r5 growth medium consisting of Dulbecco's Modified Eagles Medium containing 10% FBS, 100 U/mL penicillin, 100 μg/mL streptomycin, 4 mM L-glutamine, and 0.15% sodium bicarbonate. 80-90% confluent flasks of cells were differentiated using the following differentiation medium: A7r5 Growth Medium plus 1 mM dibutyryl cyclic AMP (Sigma). Cells were differentiated for 8 days by replacing differentiation medium every 2-3 days.
FLIPR Calcium Mobilization Assay for L-type Calcium Channel. One day prior to performing this assay, differentiated A7r5 cells were trypsinized, then seeded on tissue culture treated 96-well clear-bottom black plates (Becton Dickinson, Franklin Lakes, N.J.) at a dilution of 1:1 from a confluent T150 cm^2 flask. On the day of the assay, the plates were washed with A7r5 wash buffer (127 mM NaCl, 2 mM MgCl2, 700 μM NaH2PO4, 5 mM CaCl2, 5 mM NaHCO3, 8 mM HEPES, 10 mM glucose, pH 7.4), then loaded with 0.1 mL of A7r5 wash buffer containing Fluo-4 (3 μM final concentration, Molecular Probes, Eugene, Oreg.). After 1 hour, the cells were washed with 0.1 mL A7r5 wash buffer and resuspended in 0.05 mL A7r5 assay buffer that was composed of A7r5 wash buffer plus 50 μM valinomycin (Sigma). Plates were then transferred to a FLIPR^96 for assay. The FLIPR measured basal Fluo-4 fluorescence for 15 seconds, then added 0.05 mL of each compound tested diluted in A7r5 assay buffer at final concentrations ranging from about […]. Fluo-4 fluorescence was then measured for 5 minutes. 0.1 mL KCl agonist dissolved in A7r5 assay buffer was then added to the cells to produce a final concentration of 90 mM KCl, and fluorescence was measured for another 45 seconds. Data were collected over the entire time course and analyzed using Excel, Graph Pad Prism, or Activity Base software.

[2] = target: T2, N-type calcium channel (NTCC) (Homo sapiens, UniProt Q00975); assay: FLIPR calcium mobilization assay for N-type calcium channel; type: cell-based; settings: calcium mobilization in vitro assay, differentiated IMR32 cells
T2 construct: endogenous in cells; host or cells: IMR32 cells (ATCC), differentiated 8 days with dibutyryl cAMP and bromodeoxyuridine
Experimental: Cell maintenance and differentiation. Unless noted otherwise, cell culture reagents were purchased from Life Technologies of Rockville, Md. IMR32 cells (American Type Culture Collection, ATCC, Manassas, Va.) were routinely cultured in growth medium consisting of minimum essential medium containing 10% fetal bovine serum (FBS, Hyclone, Logan, Utah), 100 U/mL penicillin, 100 μg/mL streptomycin, 2 mM L-glutamine, 1 mM sodium pyruvate, and 1×MEM non-essential amino acids. 80-90% confluent flasks of cells were differentiated using the following differentiation medium: Growth medium plus 1 mM dibutyryl cyclic AMP (Sigma, St. Louis, Mo.), and 2.5 μM bromodeoxyuridine (Sigma). Cells were differentiated for 8 days by replacing differentiation medium every 2-3 days.
FLIPR Calcium Mobilization Assay for N-type Calcium Channel. One day prior to performing this assay, differentiated IMR32 cells were treated with 1×CellStripper, and seeded on poly-D-lysine-coated 96-well clear-bottom black plates (Becton Dickinson, Franklin Lakes, N.J.) at 200,000 cells/well. On the day of the assay, the cell plates were washed with IMR32 buffer (127 mM NaCl, 1 mM KCl, 2 mM MgCl2, 700 μM NaH2PO4, 5 mM CaCl2, 5 mM NaHCO3, 8 mM HEPES, 10 mM glucose, pH 7.4), then pre-stimulated with KCl and loaded as follows: 0.05 mL of IMR32 buffer, 0.05 mL of each compound tested diluted in IMR32 buffer containing 20 μM nitrendipine (Sigma), and 0.1 mL KCl dissolved in IMR32 buffer, plus Fluo-4 were added (3 μM final concentration, Molecular Probes, Eugene, Oreg.). Final test compound concentrations ranged from about 846 μM to about 17 μM, final nitrendipine concentration was 5 μM, and final KCl concentration was 90 mM. After 1 hour, the cells were washed twice with 0.05 mL of each compound tested in nitrendipine-containing IMR32 buffer (no KCl or Fluo-4), and then replaced with 0.1 mL of each compound tested in nitrendipine-containing IMR32 buffer. Plates were then transferred to a Fluorimetric Imaging Plate Reader (FLIPR^96, Molecular Devices, Inc., Sunnyvale, Calif.) for assay. The FLIPR measured basal Fluo-4 fluorescence for 315 seconds (i.e., 5 minutes and 15 seconds), then added 0.1 mL KCl agonist dissolved in IMR32 buffer and measured fluorescence for another 45 seconds. Final test compound concentrations on the cells after FLIPR read ranged from about 846 μM to about 17 μM, final nitrendipine concentration was 5 μM, and final KCl concentration was 90 mM. Data were collected over the entire time course and analyzed using Excel, Graph Pad Prism (version 3.02, Graph Pad, San Diego, Calif.), or Activity Base (version 5.1, IDBS, Parsippany, N.J.) software.

T1 sequence (P22002 whole entry): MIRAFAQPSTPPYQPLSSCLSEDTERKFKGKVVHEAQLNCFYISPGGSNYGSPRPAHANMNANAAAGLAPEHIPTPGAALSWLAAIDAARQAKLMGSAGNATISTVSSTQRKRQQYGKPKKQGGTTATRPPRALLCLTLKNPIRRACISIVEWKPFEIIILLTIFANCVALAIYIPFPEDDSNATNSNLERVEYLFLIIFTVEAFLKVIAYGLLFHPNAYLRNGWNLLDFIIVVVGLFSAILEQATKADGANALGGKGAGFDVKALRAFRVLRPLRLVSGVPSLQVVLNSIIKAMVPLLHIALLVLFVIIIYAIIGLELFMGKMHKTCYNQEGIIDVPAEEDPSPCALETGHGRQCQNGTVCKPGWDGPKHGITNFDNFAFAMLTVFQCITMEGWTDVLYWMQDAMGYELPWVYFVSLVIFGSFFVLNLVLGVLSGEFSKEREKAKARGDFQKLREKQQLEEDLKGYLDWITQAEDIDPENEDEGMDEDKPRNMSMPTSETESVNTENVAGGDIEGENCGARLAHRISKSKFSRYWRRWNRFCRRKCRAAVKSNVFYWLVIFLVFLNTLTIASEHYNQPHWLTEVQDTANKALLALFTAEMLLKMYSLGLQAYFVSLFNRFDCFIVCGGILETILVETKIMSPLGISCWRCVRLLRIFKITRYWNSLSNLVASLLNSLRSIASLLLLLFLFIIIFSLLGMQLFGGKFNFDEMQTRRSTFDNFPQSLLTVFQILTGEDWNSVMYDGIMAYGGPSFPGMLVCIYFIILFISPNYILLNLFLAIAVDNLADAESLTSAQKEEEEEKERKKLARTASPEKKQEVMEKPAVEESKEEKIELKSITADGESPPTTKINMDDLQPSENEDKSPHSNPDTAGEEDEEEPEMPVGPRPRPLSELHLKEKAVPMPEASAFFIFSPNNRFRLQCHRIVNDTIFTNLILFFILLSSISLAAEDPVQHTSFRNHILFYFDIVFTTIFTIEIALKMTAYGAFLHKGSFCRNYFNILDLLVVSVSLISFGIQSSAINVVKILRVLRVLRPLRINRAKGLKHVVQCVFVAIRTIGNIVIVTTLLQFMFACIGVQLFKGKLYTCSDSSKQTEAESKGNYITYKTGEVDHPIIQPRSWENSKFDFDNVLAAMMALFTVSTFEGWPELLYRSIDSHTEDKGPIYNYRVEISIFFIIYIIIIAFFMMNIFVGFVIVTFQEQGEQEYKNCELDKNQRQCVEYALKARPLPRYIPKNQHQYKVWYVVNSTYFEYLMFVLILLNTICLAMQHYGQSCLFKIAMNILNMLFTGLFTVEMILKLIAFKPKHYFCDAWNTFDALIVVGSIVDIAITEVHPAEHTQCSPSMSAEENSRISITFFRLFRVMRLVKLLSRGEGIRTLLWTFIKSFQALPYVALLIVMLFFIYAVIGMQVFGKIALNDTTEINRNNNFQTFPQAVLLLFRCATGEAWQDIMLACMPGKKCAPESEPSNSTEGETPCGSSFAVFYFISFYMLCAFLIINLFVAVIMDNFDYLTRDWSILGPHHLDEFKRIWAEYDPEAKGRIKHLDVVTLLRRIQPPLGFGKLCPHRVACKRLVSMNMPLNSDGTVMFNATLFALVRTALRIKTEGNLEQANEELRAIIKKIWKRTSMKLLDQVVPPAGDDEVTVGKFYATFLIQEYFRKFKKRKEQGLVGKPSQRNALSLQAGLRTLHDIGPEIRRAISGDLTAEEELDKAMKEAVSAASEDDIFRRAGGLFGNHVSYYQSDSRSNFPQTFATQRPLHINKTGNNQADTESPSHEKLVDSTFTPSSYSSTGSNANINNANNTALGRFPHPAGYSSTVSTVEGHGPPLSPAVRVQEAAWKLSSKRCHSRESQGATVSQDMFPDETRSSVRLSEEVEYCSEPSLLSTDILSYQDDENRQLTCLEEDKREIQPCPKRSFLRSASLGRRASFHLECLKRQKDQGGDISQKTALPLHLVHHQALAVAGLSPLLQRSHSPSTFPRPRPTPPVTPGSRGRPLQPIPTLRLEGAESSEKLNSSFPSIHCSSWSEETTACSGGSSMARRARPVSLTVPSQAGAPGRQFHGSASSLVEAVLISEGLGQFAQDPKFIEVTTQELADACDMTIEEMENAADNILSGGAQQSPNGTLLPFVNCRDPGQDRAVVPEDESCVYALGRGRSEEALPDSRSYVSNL
T1 sequence (P54287 whole entry partner): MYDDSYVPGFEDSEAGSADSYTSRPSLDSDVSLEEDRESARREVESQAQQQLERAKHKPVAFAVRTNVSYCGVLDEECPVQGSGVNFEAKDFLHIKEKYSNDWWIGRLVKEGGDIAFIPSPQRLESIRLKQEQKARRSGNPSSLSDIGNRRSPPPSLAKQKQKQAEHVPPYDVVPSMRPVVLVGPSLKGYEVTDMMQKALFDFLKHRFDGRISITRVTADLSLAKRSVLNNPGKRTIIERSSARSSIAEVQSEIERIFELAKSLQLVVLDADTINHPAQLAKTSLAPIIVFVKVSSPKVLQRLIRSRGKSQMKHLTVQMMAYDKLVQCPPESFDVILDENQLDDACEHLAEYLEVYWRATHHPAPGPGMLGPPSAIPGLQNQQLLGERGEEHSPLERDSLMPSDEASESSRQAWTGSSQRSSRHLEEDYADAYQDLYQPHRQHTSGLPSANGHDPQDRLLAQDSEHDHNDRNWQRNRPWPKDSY
T1 sequence (P54290 25-944 partner limits assumed): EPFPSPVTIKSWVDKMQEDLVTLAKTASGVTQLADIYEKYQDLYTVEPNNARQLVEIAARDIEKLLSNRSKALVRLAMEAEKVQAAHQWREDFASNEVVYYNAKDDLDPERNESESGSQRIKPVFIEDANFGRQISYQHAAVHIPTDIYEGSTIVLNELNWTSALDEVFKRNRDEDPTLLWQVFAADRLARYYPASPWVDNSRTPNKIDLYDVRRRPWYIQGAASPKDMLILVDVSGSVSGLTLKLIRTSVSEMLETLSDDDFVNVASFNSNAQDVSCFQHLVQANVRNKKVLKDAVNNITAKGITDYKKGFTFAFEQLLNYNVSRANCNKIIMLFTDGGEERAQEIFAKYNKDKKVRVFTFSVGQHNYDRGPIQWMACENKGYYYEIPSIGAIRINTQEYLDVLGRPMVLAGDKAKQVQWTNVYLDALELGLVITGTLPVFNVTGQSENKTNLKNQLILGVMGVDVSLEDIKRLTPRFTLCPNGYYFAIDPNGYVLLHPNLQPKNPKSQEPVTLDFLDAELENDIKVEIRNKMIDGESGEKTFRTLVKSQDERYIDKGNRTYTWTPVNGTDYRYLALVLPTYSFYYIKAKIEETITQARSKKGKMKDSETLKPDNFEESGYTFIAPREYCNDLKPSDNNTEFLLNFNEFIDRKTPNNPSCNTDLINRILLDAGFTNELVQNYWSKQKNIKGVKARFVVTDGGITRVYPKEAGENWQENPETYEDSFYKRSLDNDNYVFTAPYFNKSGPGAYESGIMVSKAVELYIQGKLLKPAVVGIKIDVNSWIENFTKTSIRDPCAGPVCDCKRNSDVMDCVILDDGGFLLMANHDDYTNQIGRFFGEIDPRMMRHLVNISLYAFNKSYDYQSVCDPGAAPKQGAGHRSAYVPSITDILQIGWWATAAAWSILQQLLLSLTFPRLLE
T1 sequence (P54290 945-1091 partner limits assumed): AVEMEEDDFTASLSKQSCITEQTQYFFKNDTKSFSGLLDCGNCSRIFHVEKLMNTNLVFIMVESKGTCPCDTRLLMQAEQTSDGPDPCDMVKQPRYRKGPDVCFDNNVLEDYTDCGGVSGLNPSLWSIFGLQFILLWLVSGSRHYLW

SMILES | IC50 [1] [nM] | IC50 [2] [nM]
O=C1N(CCCC(c2ccc(F)cc2)c2ccc(F)cc2)CCN1Cc1ccncc1 [1-[4,4-Bis(4-fluorophenyl)butyl]-3-(pyridin-4-ylmethyl)imidazolidin-2-one] | 3430 | 1190
O=C1N(CC=Cc2ccccc2)CCN1CCCC(c1ccc(F)cc1)c1ccc(F)cc1 [1-[4,4-bis(4-fluorophenyl)butyl]-3-(3-phenylprop-2-enyl)imidazolidin-2-one] | 3630 | 1140
O=C1N(CCCC(c2ccc(F)cc2)c2ccc(F)cc2)CCN1CCN1CCCC1 [1-[4,4-bis(4-fluorophenyl)butyl]-3-[2-(pyrrolidin-1-yl)ethyl]imidazolidin-2-one] | 3560 | 1360
CN1CCN(CCCC(c2ccc(F)cc2)c2ccc(F)cc2)C1=O [1-[4,4-bis(4-fluorophenyl)butyl]-3-methylimidazolidin-2-one] | 790 | 670
O=C1N(CCCC(c2ccc(F)cc2)c2ccc(F)cc2)CCN1C1CC1 [1-[4,4-bis(4-fluorophenyl)butyl]-3-cyclopropylimidazolidin-2-one] | 410 | 620

Continued by falling IC50 [2], values first:

IC50 [1] [nM] | IC50 [2] [nM] | SMILES
10000 to 20000 | 4330 | O=C1N(CCC(c2ccccc2)c2ccccc2)CCN1c1ccccc1 [1-(3,3-diphenylpropyl)-3-phenylimidazolidin-2-one]
 | 3690 | O=C1NCCN1CCCC(c1ccc(F)cc1)c1ccc(F)cc1 [1-[4,4-Bis(4-fluorophenyl)butyl]-imidazolidin-2-one]
> 20000 | 2150 | O=c1n(CCCC(c2ccc(F)cc2)c2ccc(F)cc2)c2ccccc2n1CCN1CCCCC1 [1-[4,4-Bis(4-fluorophenyl)butyl]-3-[2-(piperidin-1-yl)ethyl]-1,3-dihydro-benzoimidazol-2-one]
4690 | 810 | O=c1n(CCCC(c2ccc(F)cc2)c2ccc(F)cc2)c2ccccc2n1Cc1ccccn1 [1-[4,4-Bis(4-fluorophenyl)butyl]-3-(pyridin-2-yl)methyl-1,3-dihydro-benzoimidazol-2-one]
3290 | 340 | O=C(OCc1ccccc1)N1C(=O)N(CCCC(c2ccc(F)cc2)c2ccc(F)cc2)[C@H]2C[C@H]21 [2-[4,4-Bis(4-fluorophenyl)butyl]-4-benzyloxycarbonyl-2,4-diaza-bicyclo[3.1.0]hexan-3-one]
